# Measured values published in PubChem BioAssay (NCI).
# Values joined by “and” are separate entries in the source; they are usually repeats but may differ in a detail not shown here. Equal values may be shown once.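 Growth conditions: 96-well plates. Treatment: test compound, 48 hours, 5 concentrations. Analysis: linear interpolation between bracketing concentrations; unreached endpoints set to highest concentration. Abbreviation: GI50, concentration required for 50% inhibition of growth. The concentration for full growth arrest is given as TGI.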
# Experiments:
# Test in all cases: inhibition of tumour cell growth, NCI panel, 48 h
# [1] = tested on: 786-0 renal
# [2] = tested on: A498 renal
# [3] = tested on: A549 NSCLC
# [4] = tested on: ACHN renal
# [5] = tested on: BT-549 breast
# [6] = tested on: CAKI-1 renal
# [7] = tested on: CCRF-CEM leukemia
# [8] = tested on: COLO 205 colon
# [9] = tested on: DLD-1 colon
# [10] = tested on: DMS 114 small cell lung
# [11] = tested on: DMS 273 small cell lung
# [12] = tested on: DU-145 prostate
# [13] = tested on: EKVX NSCLC
# [14] = tested on: HCC-2998 colon
# [15] = tested on: HCT-116 colon
# [16] = tested on: HCT-15 colon
# [17] = tested on: HL-60(TB) leukemia
# [18] = tested on: HOP-18 NSCLC
# [19] = tested on: HOP-62 NSCLC
# [20] = tested on: HOP-92 NSCLC
# [21] = tested on: HS 578T breast
# [22] = tested on: HT29 colon
# [23] = tested on: IGROV1 ovarian
# [24] = tested on: K-562 leukemia
# [25] = tested on: KM12 colon
# [26] = tested on: KM20L2 colon
# [27] = tested on: LOX IMVI melanoma
# [28] = tested on: LXFL 529 NSCLC
# [29] = tested on: M14 melanoma
# [30] = tested on: M19-MEL melanoma
# [31] = tested on: MALME-3M melanoma
# [32] = tested on: MDA-MB-231 breast
# [33] = tested on: MDA-MB-435
# [34] = tested on: MDA-N
# [35] = tested on: MOLT-4 leukemia
# [36] = tested on: NCI-H226 lung
# [37] = tested on: NCI-H23 lung
# [38] = tested on: NCI-H522 lung
# [39] = tested on: NCI/ADR-RES ovarian
# [40] = tested on: OVCAR-3 ovarian
# [41] = tested on: OVCAR-4 ovarian
# [42] = tested on: OVCAR-5 ovarian
# [43] = tested on: OVCAR-8 ovarian
# [44] = tested on: PC-3 prostate
# [45] = tested on: RPMI-8226 leukemia
# [46] = tested on: RXF 393 renal
# [47] = tested on: SF-268 CNS
# [48] = tested on: SF-295 CNS
# [49] = tested on: SF-539 CNS
# [50] = tested on: SK-MEL-2 melanoma
# [51] = tested on: SK-MEL-28 melanoma
# [52] = tested on: SK-MEL-5 melanoma
# [53] = tested on: SK-OV-3 ovarian
# [54] = tested on: SN12C renal
# [55] = tested on: SNB-19 CNS
# [56] = tested on: SNB-75 CNS
# [57] = tested on: SNB-78 CNS
# [58] = tested on: SR leukemia
# [59] = tested on: SW-620 colon
# [60] = tested on: TK-10 renal
# [61] = tested on: U251 CNS
# [62] = tested on: UACC-257 melanoma
# [63] = tested on: UACC-62 melanoma
# [64] = tested on: UO-31 renal
# [65] = tested on: XF 498 CNS
# [66] = tested on: MCF7 breast
# [67] = tested on: NCI-H460 lung
# [68] = tested on: T-47D breast
compound,measurement,setting,value
CCNCC(=O)O[C@]1(CC)C(=O)OCc2c1cc1n(c2=O)Cc2cc3ccccc3nc2-1,TGI,[1],1.05 µM
same,TGI,[2],4.4 µM
same,TGI,[3],13.5 µM
same,TGI,[4],1.98 µM
same,TGI,[5],26.7 µM
same,TGI,[6],4.65 µM
same,TGI,[7],0.418 µM
same,TGI,[8],16.5 µM
same,TGI,[9],> 100 µM
same,TGI,[10],2.53 µM
same,TGI,[11],0.328 µM
same,TGI,[12],1 µM
same,TGI,[13],> 100 µM
same,TGI,[14],6.88 µM
same,TGI,[15],3.29 µM
same,TGI,[16],> 100 µM
same,TGI,[17],0.849 µM
same,TGI,[18],20.5 µM
same,TGI,[19],0.274 µM
same,TGI,[20],13.8 µM
same,TGI,[21],> 100 µM
same,TGI,[22],> 32.9 µM
same,TGI,[23],24.5 µM
same,TGI,[24],> 100 µM
same,TGI,[25],13.4 µM
same,TGI,[26],> 100 µM
same,TGI,[27],1.22 µM
same,TGI,[28],42.6 µM
same,TGI,[29],13.7 µM
same,TGI,[30],5.44 µM
same,TGI,[31],13.2 µM
same,TGI,[32],98 µM
same,TGI,[33],7.82 µM
same,TGI,[34],6.95 µM
same,TGI,[35],0.159 µM
same,TGI,[36],1.29 µM
same,TGI,[37],0.879 µM
same,TGI,[38],7.97 µM
same,TGI,[39],1.39 µM
same,TGI,[40],15.9 µM
same,TGI,[41],8.84 µM
same,TGI,[42],13.2 µM
same,TGI,[43],5.68 µM
same,TGI,[44],> 100 µM
same,TGI,[45],4.07 µM
same,TGI,[46],1.74 µM
same,TGI,[47],> 100 µM
same,TGI,[48],4.66 µM
same,TGI,[49],0.574 µM
same,TGI,[50],7.92 µM
same,TGI,[51],> 55.5 µM
same,TGI,[52],1.27 µM
same,TGI,[53],10.8 µM
same,TGI,[54],11.2 µM
same,TGI,[55],> 100 µM
same,TGI,[56],7.91 µM
same,TGI,[57],> 100 µM
same,TGI,[58],0.0327 µM
same,TGI,[59],> 62.5 µM
same,TGI,[60],99 µM
same,TGI,[61],6.61 µM
same,TGI,[62],12.2 µM
same,TGI,[63],0.677 µM
same,TGI,[64],1.7 µM
same,TGI,[65],1.56 µM
CC(=O)OC1CC(n2cc(F)c(=O)[nH]c2=O)OC1CO (stereo not given),TGI,[1],> 62.5 µM
same,TGI,[2],15.5 µM
same,TGI,[3],> 90.8 µM
same,TGI,[4],> 77.8 µM
same,TGI,[5],> 100 µM
same,TGI,[6],> 100 µM
same,TGI,[7],> 100 µM
same,TGI,[8],> 100 µM
same,TGI,[9],> 100 µM
same,TGI,[10],> 100 µM
same,TGI,[11],> 47 µM
same,TGI,[12],> 100 µM
same,TGI,[13],> 100 µM
same,TGI,[14],8.33 µM
same,TGI,[15],> 100 µM
same,TGI,[16],> 100 µM
same,TGI,[17],> 100 µM
same,TGI,[18],> 100 µM
same,TGI,[19],10.1 µM
same,TGI,[20],> 69 µM
same,TGI,[21],> 100 µM
same,TGI,[22],> 100 µM
same,TGI,[23],> 100 µM
same,TGI,[24],> 100 µM
same,TGI,[25],> 100 µM
same,TGI,[26],> 100 µM
same,TGI,[27],> 63.8 µM
same,TGI,[28],16.4 µM
same,TGI,[29],45.6 µM
same,TGI,[30],> 100 µM
same,TGI,[31],> 100 µM
same,TGI,[66],> 28.3 µM
same,TGI,[32],> 100 µM
same,TGI,[33],> 100 µM
same,TGI,[34],> 100 µM
same,TGI,[35],> 100 µM
same,TGI,[36],> 100 µM
same,TGI,[37],77.1 µM
same,TGI,[67],> 100 µM
same,TGI,[38],23.9 µM
same,TGI,[39],> 100 µM
same,TGI,[40],> 100 µM
same,TGI,[41],> 100 µM
same,TGI,[42],> 100 µM
same,TGI,[43],> 100 µM
same,TGI,[44],> 100 µM
same,TGI,[45],> 100 µM
same,TGI,[46],> 100 µM
same,TGI,[47],> 73.8 µM
same,TGI,[48],> 89 µM
same,TGI,[49],5.02 µM
same,TGI,[50],> 100 µM
same,TGI,[51],> 100 µM
same,TGI,[52],16.2 µM
same,TGI,[53],> 100 µM
same,TGI,[54],> 100 µM
same,TGI,[55],> 100 µM
same,TGI,[56],> 100 µM
same,TGI,[57],> 100 µM
same,TGI,[58],> 100 µM
same,TGI,[59],> 86.8 µM
same,TGI,[68],> 100 µM
same,TGI,[60],> 100 µM
same,TGI,[61],> 100 µM
same,TGI,[62],> 100 µM
same,TGI,[63],> 22.4 µM
same,TGI,[64],> 92.6 µM
same,TGI,[65],83.8 µM
O=C1C(CN2CCCCC2)CCCC1CN1CCCCC1 (stereo not given),TGI,[1],22.3 µM and 15 µM
same,TGI,[2],> 100 µM
same,TGI,[3],> 100 µM
same,TGI,[4],34 µM and 39.3 µM
same,TGI,[5],30.9 µM
same,GI50,[6],13 µM and 5.2 µM
same,TGI,[6],26.2 µM and 11.9 µM
same,GI50,[7],4.86 µM and 2.41 µM
same,TGI,[7],20.6 µM and > 22.6 µM
same,GI50,[8],25.5 µM and 8.41 µM
same,TGI,[8],> 56.9 µM and 16.1 µM
same,TGI,[9],31.5 µM and 32 µM
same,GI50,[10],7.38 µM and 27.4 µM
same,TGI,[10],18.7 µM and 79.4 µM
same,TGI,[11],> 100 µM
same,GI50,[12],0.059 µM
same,TGI,[12],32.2 µM
same,TGI,[13],38 µM and 39.8 µM
same,TGI,[14],> 100 µM
same,TGI,[15],27.6 µM and 29 µM
same,TGI,[16],28.2 µM and 42.8 µM
same,GI50,[17],19 µM and 8.6 µM
same,TGI,[17],39.3 µM and > 63.1 µM
same,TGI,[18],28.5 µM and 30.9 µM
same,TGI,[19],> 100 µM
same,GI50,[20],7.52 µM and 2.89 µM
same,TGI,[20],18.4 µM and 5.93 µM
same,TGI,[21],72.3 µM
same,TGI,[22],34.2 µM and 40.8 µM
same,TGI,[23],> 100 µM
same,GI50,[24],8.04 µM and 3.15 µM
same,TGI,[24],15.8 µM and 25.5 µM
same,TGI,[25],> 100 µM
same,TGI,[26],17.8 µM and 22.8 µM
same,TGI,[27],> 57.2 µM
same,TGI,[28],29.3 µM and 28.9 µM
same,TGI,[29],> 52.2 µM and 39.5 µM
same,GI50,[30],> 43 µM and 19.8 µM
same,TGI,[30],> 57.1 µM and 36.7 µM
same,TGI,[31],11.4 µM and 14.8 µM
same,TGI,[66],7.87 µM
same,TGI,[32],34.7 µM
same,TGI,[33],30.9 µM
same,TGI,[34],29.7 µM
same,GI50,[35],10.9 µM and 4.27 µM
same,TGI,[35],> 65.6 µM and 12 µM
same,TGI,[36],> 100 µM
same,TGI,[37],> 68.4 µM and 55.8 µM
same,GI50,[67],> 100 µM
same,TGI,[67],> 100 µM
same,TGI,[39],55.9 µM
same,TGI,[40],32.1 µM and 34 µM
same,TGI,[41],22.2 µM
same,TGI,[42],> 100 µM
same,TGI,[43],21 µM and 39.3 µM
same,TGI,[44],29.8 µM
same,TGI,[45],13.1 µM
same,TGI,[46],31.6 µM
same,GI50,[47],> 89.2 µM
same,TGI,[47],> 100 µM
same,TGI,[48],> 100 µM
same,TGI,[49],> 57.5 µM and 47.8 µM
same,GI50,[50],> 83.2 µM and 31.9 µM
same,TGI,[50],> 100 µM and 48.4 µM
same,TGI,[51],18.4 µM and 31.7 µM
same,TGI,[52],> 31.6 µM and 47.6 µM
same,TGI,[53],> 100 µM
same,TGI,[54],> 31.6 µM and 48.7 µM
same,TGI,[55],> 100 µM
same,GI50,[56],> 100 µM and 46.2 µM
same,TGI,[56],> 100 µM
same,TGI,[57],47.6 µM and 44.8 µM
same,TGI,[58],43.9 µM and 47.2 µM
same,TGI,[59],24.6 µM and 13.7 µM
same,TGI,[68],3.74 µM
same,GI50,[60],> 100 µM and 12.4 µM
same,TGI,[60],> 100 µM and 28.4 µM
same,TGI,[61],> 100 µM
same,TGI,[62],57.9 µM and 31.7 µM
same,TGI,[63],> 67.9 µM
same,TGI,[64],> 68.4 µM
same,TGI,[65],33.4 µM and 39.8 µM
